Data: patent US10653688B2, “6-(6-membered heteroaryl and aryl)isoquinolin-3-yl carboxamides and preparation and use thereof” (Samumed, LLC, priority 2017, dated 2020)
Where two headings read alike, the source gives them in different places.

Assays:
recombinant GSK3β kinase = recombinant GSK3β kinase (Homo sapiens (Human), UniProt P49841); assay: GSK3β kinase assay (Ser/Thr 09 peptide Z-lyte, FRET); assay type: biochemical;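 further: FRET read-out as coumarin over fluorescein emission ratio, compounds incubated one hour at room temperature, IC50 from dose-response curve fit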
Chain of recombinant GSK3β kinase (P49841 whole entry): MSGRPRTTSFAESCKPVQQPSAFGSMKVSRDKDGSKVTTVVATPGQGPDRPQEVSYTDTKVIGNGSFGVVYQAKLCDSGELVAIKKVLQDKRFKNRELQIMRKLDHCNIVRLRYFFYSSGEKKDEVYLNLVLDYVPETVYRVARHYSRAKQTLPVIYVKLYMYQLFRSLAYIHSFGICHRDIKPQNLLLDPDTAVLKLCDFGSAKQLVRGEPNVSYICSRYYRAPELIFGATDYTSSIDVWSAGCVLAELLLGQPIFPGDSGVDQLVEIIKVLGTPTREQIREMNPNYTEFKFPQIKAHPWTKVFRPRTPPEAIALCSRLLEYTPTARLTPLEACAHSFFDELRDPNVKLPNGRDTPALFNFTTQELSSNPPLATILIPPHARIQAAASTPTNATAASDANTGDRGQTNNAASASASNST

[1] = test system: Tau phosphorylation at Ser396 (pSer396) in SH-SY5Y cells; assay: Tau phosphorylation at Ser396 (pSer396) cell assay, ELISA/western blot; assay type: cell-based, human
Method: SH-SY5Y cells (human neuroblastoma) were cultured in DMEM/F-12 medium supplemented with 15% FBS, Non-essential Amino Acid and Penicillin/Streptomycin. Two days before treatment, cells were seeded onto 96 well plates at 5×10^4 cells/well.
The above synthesized compounds were screened using the cell assay procedure to assess decrease Tau phosphorylation at Ser396 (pSer396) described below.
DMSO-resuspended compounds were dispensed to 8 wells as a serial titration from 10 μM to 4.6 nM final in medium and cells were exposed overnight (16-18 h) in a humidified incubator at 36.6c before harvest.
Cells were lysed with RIPA buffer complemented with phosphatase and protease inhibitors then lysates were spun down at 12,000 g for 10 min to remove any cellular debris. Lysates are then either directly tested for pSer396 by ELISA (Life Technology, Kit KHB7031) or loaded on NuPage Bis-Tris gels for western blot analysis. Colorimetric detection of ELISA signal is performed by Cytation3 plate reader (Biotek) and the chemiluminescence signal for HRP-linked antibodies used in western blotting is detected using a Carestream Image Station. The same pSer396 antibody is used for detection of pTau in both assays.
Blot densitometry for pSer396 and β-actin were analyzed using ImageJ (NIH) and pSer396 Tau ELISA signal was used to plot, draw the curve fitting, and determine each compounds EC50 in Prism (GraphPad).

[2] = test system: SW480 colon carcinoma cells; assay: Cell viability assay (CellTiter-Glo); assay type: cell-based, human; settings: Homo sapiens; for EC50: 96 h, four days, CellTiter-Glo; for inhibition at 10 µM: read-out: percent inhibition at 10 μM (given for EC50 >10 μM), 10 μM
[3] = target: recombinant DYRK1A kinase (Homo sapiens (Human), UniProt Q13627); assay: DYRK1A kinase assay (Ser/Thr 18 peptide Z-lyte, FRET)
[4] = test system: Wnt activity (SW480 colon carcinoma cells stably expressing the Sp5-Luc reporter gene); assay: Wnt activity screening assay (Sp5-Luc reporter gene assay); assay type: cell-based, human; settings: Homo sapiens; for EC50: 36 to 48 hours; for inhibition at 10 µM: read-out: percent inhibition at 10 μM (given for EC50 >10 μM), 10 μM
In short: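 SW480 colon carcinoma cells stably carrying a lentiviral luciferase reporter driven by an Sp5 promoter with eight TCF/LEF sites, plated at 4,000 cells/well in DMEM with 1% FBS. Compound exposure for 36–48 h at 37 °C, then luminescence read. Signals normalized to DMSO; EC50 from four-parameter nonlinear fit.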

[5] = test system: LL29 cells (primary human fibroblasts derived from IPF patients), α-smooth muscle actin; assay: Inhibition of fibrotic process: TGF-β1-treated primary human fibroblasts, αSMA staining; assay type: cell-based; settings: Homo sapiens, Fibroblast; for EC50: 96 h, TGF-β1 20 ng/mL, 4 days, % cells positive for αSMA; for inhibition at 10 µM: read-out: percent inhibition at 10 μM (given for EC50 >10 μM), TGF-β1, αSMA, 10 μM;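 on all read-outs here: controls were TGF-β1-stimulated wells with DMSO vehicle as the positive reference and cells given DMSO alone as the negative reference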
[6] = test system: IL-6 in human peripheral blood mononuclear cells (huPBMCs); assay: IL-6 inhibition in LPS-stimulated human peripheral blood mononuclear cells (HTRF); assay type: cell-based; settings: Homo sapiens, PBMC; for EC50: LPS 50 ng/mL, 22 hours, IL-6 HTRF; for inhibition at 10 µM: read-out: percent inhibition at 10 μM (given for EC50 >10 μM), LPS, IL-6, 10 μM
In short: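 Fresh normal human PBMCs at 1×10e6 cells/mL in RPMI with 1% FBS received compound, then 50 ng/mL E. coli 0111:B4 LPS 2 h later, and were incubated a further 22 h at 37° C. IL-6 read by HTRF (665/620 nm ratio), normalized to DMSO; EC50 from 4-parameter fit.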

[7] = test system: secreted cytokines TNFα, IL-6 and KC-GRO in BV-2 cells (mouse microglial cells); assay: Secreted cytokines in lipopolysaccharide-stimulated mouse glial cell line; assay type: cell-based; settings: LPS 250 ng/mL 5 hours, table does not say which cytokine
Method: Representative compounds were screened using the cell-based assay procedure for secreted cytokines in a Lipopolysaccharide-stimulated mouse glial cell line described below.
BV-2 cells (mouse microglial cells) were cultured in 1:1 DMEM medium supplemented with 10% FBS, and 1% penicillin/streptomycin.
BV-2 cells are plated at 35,000 cells/well in a volume of 100 μl for at least 4 hours before compounds are added. DMSO-resuspended compounds were first dispensed in a 96-well plate and serial diluted from 10 μM to 4.6 nM final concentration in medium. Compounds were added to cells overnight. 250 ng/mL of lipopolysaccharide (Escherichia coli O111:B4, SIGMA) was added for 5 hours. Supernatant is removed and saved for further cytokine detection. The original plates with seeded cells were tested for cytotoxicity by measure of adenosine triphosphate (ATP) release by adding CellTiter-Glo® diluted 1:4 in distilled water (G7573, Promega) and transferring lysed cells to a completely black 96-well plate to be read with the Cytation3. Supernatant was then diluted 1:2 with a diluent from V-PLEX cytokine Kit and directly tested for the secreted cytokines TNFα, IL-6 and KC-GRO using electrochemiluminescence (Meso Scale Discovery). The standard curve for each cytokine was used to convert the electrochemiluminescent signal into pg of protein per mL. The signal was used to plot, draw the curve fitting, and determine each compounds EC50 in Prism (GraphPad).

[8] = test system: pT212Tau in Dyrk1a- and MAPT-overexpressing HEK293T cells; assay: Tau phosphorylation at Threonine 212 (pT212Tau) sandwich ELISA in double transfected cells; settings: Homo sapiens, HEK-293T, read-out: Thr212 EC50 (μM)
Method: HEK293T cells (transfectable human embryonic kidney cells) were cultured in DMEM medium supplemented with 10% FBS and 1% penicillin/streptomycin.
HEK293T cells were transiently transfected to overexpress Dyrk1a and microtubule-associated protein Tau (MAPT) genes. Specifically, Dyrk1a and MAPT expression vectors were obtained from OriGene (10 μg of each, catalog numbers SC314641 and RC216166, respectively). […] HEK293T cells were seeded at 1.0×10^7 cells in 10 mL per T-75 flask. […] One T-75 flask was designated as a no-vector negative control for pT212Tau signal.
After 4-6 hours of incubation in transfection reagents, transiently double transfected HEK293T cells were dissociated by treatment with trypsin EDTA and seeded at 1.0×10^5 cells in 100 μL per well in 96-well plates. No-vector negative controls were seeded in separate 96-well plates to avoid the risk of the negative control cells picking up the overexpression during incubation.
96-well flat-bottom plates were coated with 100 μL per well anti-HT7 capture antibody (ThermoFisher, MN1000) diluted 1:300 in 1×PBS at 4° C. overnight, with shaking at 500 rpm.
Cells were then lysed with 100 μL 1×RIPA buffer supplemented with phosphatase and protease inhibitors (each diluted to a final 1×). […] V-bottom plates were centrifuged at 4000 rpm, 4° C., for 15 minutes, and 100 μL of lysate supernatant from each well was directly tested for pT212Tau signal by sandwich ELISA.

[9] = GSK3β kinase, head says EC50, method says IC50, ATP 46 μM
[10] = Homo sapiens, SH-SY5Y cells, overnight (16-18 h), read-out: pSer396 Tau EC50
[11] = DYRK1A kinase, head says EC50, method says IC50, ATP 30 μM

| Compound | EC50 (recombinant GSK3β kinase; [9]) | EC50 [1, 10] | EC50 [2] | EC50 [3, 11] | EC50 [4] | EC50 [6] | EC50 (recombinant GSK3β kinase) | EC50 [3] | EC50 [7] | inhibition at 10 µM [2] | inhibition at 10 µM [4] | EC50 [5] | inhibition at 10 µM [6] | EC50 [8] | inhibition at 10 µM [5] | EC50 ([1]; Homo sapiens, SH-SY5Y, read-out: EC50 in the Tau assay) | EC50 ([1]; control DYRK1A inhibitors, printed '>10 M' (μ apparently lost), read-out: EC50 in the Tau assay) |
| --- | --- | --- | --- | --- | --- | --- | --- | --- | --- | --- | --- | --- | --- | --- | --- | --- | --- |
| O=C(Nc1cc2cc(-c3cncc(C(F)F)c3)ccc2cn1)c1cccc(C2CCNCC2)c1 [Compound 26, N-(6-(5-(Difluoromethyl)pyridin-3-yl)isoquinolin-3-yl)-3-(piperidin-4-yl)benzamide] | > 10 µM | – | 1.86 µM | 0.029 µM | 1.55 µM | 1.32 µM | – | – | 0.479 µM | – | – | 1.33 µM | – | 1.4 µM | – | – | – |
| CN1CCC(c2cccc(C(=O)Nc3cc4cc(-c5cncc(C(F)F)c5)ccc4cn3)c2)CC1 [Compound 27, N-(6-(5-(Difluoromethyl)pyridin-3-yl)isoquinolin-3-yl)-3-(1-methylpiperidin-4-yl)benzamide] | > 10 µM | – | 1.95 µM | 0.029 µM | 1.11 µM | 9.16 µM | – | – | 0.847 µM | – | – | 0.979 µM | – | 6.8 µM | – | – | – |
| CN1CCN(c2cc(C(=O)Nc3cc4cc(-c5cncc(C(F)F)c5)ccc4cn3)ccn2)CC1 [Compound 28, N-(6-(5-(Difluoromethyl)pyridin-3-yl)isoquinolin-3-yl)-2-(4-methylpiperazin-1-yl)isonicotinamide] | > 10 µM | – | 4.15 µM | 0.011 µM | 4.67 µM | 7.43 µM | – | – | 0.295 µM | – | – | 1.52 µM | – | 1.6 µM | – | – | – |
| CN1CCC(C(=O)Nc2cc3cc(-c4cncc(CO)c4)ccc3cn2)CC1 [Compound 31, N-(6-(5-(Hydroxymethyl)pyridin-3-yl)isoquinolin-3-yl)-1-methylpiperidine-4-carboxamide] | – | 9.1 µM | 0.859 µM | – | 0.862 µM | 8.94 µM | 0.698 µM | 0.003 µM | – | – | – | 0.45 µM | – | – | – | – | – |
| CC(=O)Nc1cncc(-c2ccc3cnc(NC(=O)C4CCN(C)CC4)cc3c2)c1 [Compound 47, N-(6-(5-Acetamidopyridin-3-yl)isoquinolin-3-yl)-1-methylpiperidine-4-carboxamide] | 0.487 µM | > 10 µM | 6.98 µM | 0.002 µM | 1.26 µM | 5.99 µM | – | – | – | – | – | 0.556 µM | – | – | – | – | – |
| CC(C)(O)CN1CCCC(C(=O)Nc2cc3cc(-c4cnccn4)ccc3cn2)CC1 (stereo not drawn) [Compound 82, 1-(2-Hydroxy-2-methylpropyl)-N-(6-(pyrazin-2-yl)isoquinolin-3-yl)azepane-4-carboxamide] | – | – | > 10 µM | – | > 10 µM | > 10 µM | 1.54 µM | 0.027 µM | 0.717 µM | 20% | 3.4% | 3.15 µM | 9.9% | 0.192 µM | – | – | – |
| COc1ccc2c(c1)[nH]c1c(C)nccc12 [Harmine, reference compound] | – | – | – | – | – | – | – | – | – | – | – | – | – | – | – | > 10 µM | – |
| CCN1/C(=C/C(C)=O)Sc2ccc(O)cc21 [Indy, reference compound] | – | – | – | – | – | – | – | – | – | – | – | – | – | – | – | – | > 10 µM |

Continued, in another order:

| EC50 (recombinant GSK3β kinase; [9]) | EC50 [1, 10] | EC50 [2] | EC50 [3, 11] | EC50 [4] | EC50 [6] | EC50 (recombinant GSK3β kinase) | EC50 [3] | EC50 [7] | Compound | inhibition at 10 µM [2] | inhibition at 10 µM [4] | EC50 [5] | inhibition at 10 µM [6] | EC50 [8] | inhibition at 10 µM [5] | EC50 ([1]; Homo sapiens, SH-SY5Y, read-out: EC50 in the Tau assay) | EC50 ([1]; control DYRK1A inhibitors, printed '>10 M' (μ apparently lost), read-out: EC50 in the Tau assay) |
| --- | --- | --- | --- | --- | --- | --- | --- | --- | --- | --- | --- | --- | --- | --- | --- | --- | --- |
| 5.31 µM | > 10 µM | > 10 µM | 0.26 µM | > 10 µM | > 10 µM | – | – | – | CN1CCC(C(=O)Nc2cc3cc(-c4ccccn4)ccc3cn2)CC1 [Compound 3, 1-Methyl-N-(6-(pyridin-2-yl)isoquinolin-3-yl)piperidine-4-carboxamide] | 50% | 13.7% | 6.01 µM | 5.1% | – | – | – | – |
| – | – | > 10 µM | – | > 10 µM | > 10 µM | 1.77 µM | 0.07 µM | 1.32 µM | O=C(CN1CCOCC1)Nc1cc2cc(-c3cncc(F)c3)ccc2cn1 [Compound 22, N-(6-(5-Fluoropyridin-3-yl)isoquinolin-3-yl)-2-morpholinoacetamide] | 17.2% | 10.9% | 2.06 µM | 22.9% | 0.253 µM | – | – | – |
| > 10 µM | > 10 µM | 4 µM | 0.608 µM | 9.85 µM | > 10 µM | – | – | – | CN1CCN(CC(=O)Nc2cc3cc(-c4cncc(C(F)(F)F)c4)ccc3cn2)CC1 [Compound 29, 2-(4-Methylpiperazin-1-yl)-N-(6-(5-(trifluoromethyl)pyridin-3-yl)isoquinolin-3-yl)acetamide] | – | – | 4.02 µM | 4.3% | – | – | – | – |
| – | – | > 10 µM | – | > 10 µM | > 10 µM | 0.859 µM | 0.123 µM | 2.97 µM | O=C(CN1CCOCC1)Nc1cc2cc(-c3cccnn3)ccc2cn1 [Compound 66, 2-morpholino-N-(6-(pyridazin-3-yl)isoquinolin-3-yl)acetamide] | 17.5% | 8.2% | > 10 µM | 8.1% | 0.791 µM | 10.6% | – | – |
| 1.69 µM | – | > 10 µM | 0.094 µM | > 10 µM | > 10 µM | – | – | 1.43 µM | O=C(CN1CCCC1)Nc1cc2cc(-c3cnccn3)ccc2cn1 [Compound 74, N-(6-(Pyrazin-2-yl)isoquinolin-3-yl)-2-(pyrrolidin-1-yl)acetamide] | 125% | 17.5% | > 10 µM | 4.9% | 2.1 µM | 18.7% | – | – |
| 1.31 µM | – | > 10 µM | 0.079 µM | > 10 µM | > 10 µM | – | – | 1.7 µM | O=C(CN1CCOCC1)Nc1cc2cc(-c3cnccn3)ccc2cn1 [Compound 79, 2-Morpholino-N-(6-(pyrazin-2-yl)isoquinolin-3-yl)acetamide] | 24.8% | 7.9% | > 10 µM | 3.9% | 0.959 µM | 17.2% | – | – |
| 1.56 µM | – | > 10 µM | 0.027 µM | > 10 µM | > 10 µM | – | – | – | CN1CCCC(C(=O)Nc2cc3cc(-c4cnccn4)ccc3cn2)CC1 (stereo not drawn) [Compound 80, 1-Methyl-N-(6-(pyrazin-2-yl)isoquinolin-3-yl)azepane-4-carboxamide] | 32% | 9.6% | 9.13 µM | 4.9% | 1.4 µM | – | – | – |
